Experimental data published in patent publication US6737383B1, “Herbicidal oxadiazolidines” (priority 1999, dated 2004).

Tests used:
corn = assay: Test C postemergence corn; assay type: in vivo, Zea mays; conditions: 0 to 100 scale, 0 no effect, 100 complete control
Procedure: (§1) Compounds evaluated in this test were formulated in a non-phytotoxic solvent mixture which included a surfactant and applied to plants that were grown for various periods of time before treatment (postemergence application). A mixture of sandy loam soil and greenhouse potting mix in a 60:40 ratio was used for the postemergence test.
(§2) Plantings of these crops and weed species were adjusted to produce plants of appropriate size for the postemergence test. All plant species were grown using normal greenhouse practices. Crop and weed species include arrowleaf sida (Sida rhombifolia), barnyardgrass (Echinochloa crus-galli), cocklebur (Xanthium strumarium), common ragweed (Ambrosia elatior), corn (Zea mays), cotton (Gossypium hirsutum), eastern black nightshade (Solanum ptycanthum), fall panicum (Panicum dichotomiflorum), field bindweed (Convolvulus arvensis), giant foxtail (Setaria faberii), hairy beggarticks (Bidens pilosa), ivyleaf morningglory (Ipomoea hederacea), johnsongrass (Sorghum halepense), ladysthumb smartweed (Polygonum persicaria), lambsquarters (Chenopodium album), large crabgrass (Digitaria sanguinalis), purple nutsedge (Cyperus rotundus), redroot pigweed (Amaranthus retroflexus), soybean (Glycine max), surinam grass (Brachiaria decumbens), velvetleaf (Abutilon theophrasti) and wild poinsettia (Euphorbia heterophylla).
(§3) Treated plants and untreated controls were maintained in a greenhouse for approximately 14, to 21 days, after which all treated plants were compared to untreated controls and visually evaluated. Plant response ratings, summarized in Table C, were based upon a 0 to 100 scale where 0 was no effect and 100 was complete control. A dash response (−) means no test result.

ivyleaf morningglory = assay: Test C postemergence ivyleaf morningglory; assay type: in vivo, Ipomoea hederacea; conditions: 0 to 100 scale, 0 no effect, 100 complete control
How it was run: (§4)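 Postemergence spray; formulation = non-phytotoxic solvent + surfactant; soil 60:40 sandy loam:greenhouse potting mix; greenhouse, ~14–21 d; visual rating vs untreated, 0–100 (100 = complete control).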

lambsquarters = assay: Test C postemergence lambsquarters; assay type: in vivo, Chenopodium album; conditions: 0 to 100 scale, 0 no effect, 100 complete control
How it was run: as §4

purple nutsedge = assay: Test C postemergence purple nutsedge; assay type: in vivo, Cyperus rotundus; conditions: 0 to 100 scale, 0 no effect, 100 complete control
How it was run: as §4

redroot pigweed = assay: Test C postemergence redroot pigweed; assay type: in vivo, Amaranthus retroflexus; conditions: 0 to 100 scale, 0 no effect, 100 complete control
Procedure: as §1, §2, §3

[1] = system: Chenopodium album (CHEAL); assay: Test F preemergence, alone and in mixture with rimsulfuron, CHEAL; assay type: in vivo; conditions: 21 days after treatment, 0-100 scale
Procedure: Abutilon theophrasti (ABUTH), Chenopodium album (CHEAL), Amaranthus rudis (AMATA), Setaria faberii (SETFA), Panicum dichotomiflorum (PANDI), and Digitaria sanguinalis (DIGSA) were grown from seed in pots of an artificial potting mixture in a greenhouse. Compounds of the present invention were applied at 70 and 105 g ai/ha preemergence. Rimsulfuron was applied at 8.8 and 17.5 g ai/ha. Mixtures of the compounds of the present invention and rimsulfuron were also applied.
(§5) Following application, the plants were maintained by watering as needed. A fertilizer solution of Peter's 20-20-20 (10 pounds/5 gallons of water) plus Sprint 330, a Iron Chelate micronutrient, (113.5 grams/5 gallons of water) was injected into the water with an Anderson fertilizer injection system to provide approximately 219 ppm of nitrogen with each watering. Artificial lighting was used to supplement natural light to produce a 14 hour photoperiod and: an additional one hour light period was used between 1:00 am to 2:00 am for a night interruption. Greenhouse temperatures were targeted for 27° C. in the day and 21° C. at night. At 21 days after treatment, all plants were evaluated for injury as compared to control plants that were sprayed only with non-phytotoxic solvent.
Colby's equation was used to calculate the expected additive herbicidal effect of the mixtures of Compound 21 and the mixture partners listed above. […]

certain weeds = assay: Test F overall statement on synergism with rimsulfuron (Colby's equation); assay type: in vivo; conditions: combinations with rimsulfuron, preemergence
Procedure: as §5, with “Abutilon theophrasti (ABUTH), Chenopodium album (CHEAL), Amaranthus rudis (AMATA), Setaria […]), Panicum dichotomiflorum (PANDI), and Digitaria sanguinalis (DIGSA) were grown from seed in pots of an artificial potting mixture in a greenhouse. Compounds of the present invention were applied at 70 and 105 g ai/ha preemergence. Rimsulfuron was applied at 8.8 and 17.5 g ai/ha. Mixtures of the compounds of the present invention and rimsulfuron were also applied. Following” for “Following”, “solvent. […] Colby's equation was used to calculate the expected additive herbicidal effect of the mixtures of Compound 21 and the mixture partners listed above. […]” for “solvent.”

CC(C)N(C(=O)n1oc(=O)n(C(C)C)c1=O)c1ccccc1 [Compound 113] was tested, and the “Plant response rating, Corn” value (corn; Rate 140 g/ha) was 0, the “Plant response rating, Corn” value (corn; Rate 280 g/ha) was 40 and the “Plant response rating, Corn” value (corn; Rate 560 g/ha) was 45. For the same compound, the “Plant response rating, Corn” value (corn; Rate 1120 g/ha) was 60, the “Plant response rating I. morningglory” value (ivyleaf morningglory; Rate 140 g/ha) was 10 and the “Plant response rating I. morningglory” value (ivyleaf morningglory; Rate 280 g/ha) was 50. The “Plant response rating I. morningglory” value (ivyleaf morningglory; Rate 560 g/ha) was 50, the “Plant response rating I. morningglory” value (ivyleaf morningglory; Rate 1120 g/ha) was 50 and the “Plant response rating Lambsquarters” value (lambsquarters; Rate 140 g/ha) was 0. For the same compound, the “Plant response rating Lambsquarters” value (lambsquarters; Rate 560 g/ha) was 20, the “Plant response rating Lambsquarters” value (lambsquarters; Rate 1120 g/ha) was 50 and the “Plant response rating, Purple nutsedge” value (purple nutsedge; Rate 140 g/ha) was 0. The “Plant response rating, Purple nutsedge” value (purple nutsedge; Rate 280 g/ha) was 10, the “Plant response rating, Purple nutsedge” value (purple nutsedge; Rate 560 g/ha) was 0 and the “Plant response rating, Purple nutsedge” value (purple nutsedge; Rate 1120 g/ha) was 10. For the same compound, the “Plant response rating, Redroot pigweed” value (redroot pigweed; Rate 140 g/ha) was 0, the “Plant response rating, Redroot pigweed” value (redroot pigweed; Rate 280 g/ha) was 0 and the “Plant response rating, Redroot pigweed” value (redroot pigweed; Rate 560 g/ha) was 0. The “Plant response rating, Redroot pigweed” value (redroot pigweed; Rate 1120 g/ha) was 90, the “CHEAL Observed” value ([1]; Alone: Cmpd. rate 70, Rimsulfuron 0) was 15% and the “CHEAL Observed” value ([1]; Alone: Cmpd. rate 105, Rimsulfuron 0) was 35%. The “Weed control of combination with rimsulfuron compared with expectation from Colby's equation” value (certain weeds) was “better control of certain weeds than expected”.
